# Active and inactive are the calls of the source. The calls are words filed in the database; no cut-off is given here.
# Key:
# [1] = Cytotoxicity against human THP1-Dual cells assessed as reduction in cell viability incubated for 24 hrs by CCK-8 assay; format: toxicity, cell-based
# Cyclic GMP-AMP synthase [2] = molecular target: T1, Cyclic GMP-AMP synthase (Homo sapiens, UniProt Q8N884); test: Inhibition of human cGAS expressed in THP1-Dual cells transfected with HT-DNA assessed as suppression of lipofectamine 2000:ds-DNA complex induced activation of cGAS incubated for 1 hr by Quanti-luc reagent based assay; format: cell-based
# T1 sequence (Q8N884 whole entry): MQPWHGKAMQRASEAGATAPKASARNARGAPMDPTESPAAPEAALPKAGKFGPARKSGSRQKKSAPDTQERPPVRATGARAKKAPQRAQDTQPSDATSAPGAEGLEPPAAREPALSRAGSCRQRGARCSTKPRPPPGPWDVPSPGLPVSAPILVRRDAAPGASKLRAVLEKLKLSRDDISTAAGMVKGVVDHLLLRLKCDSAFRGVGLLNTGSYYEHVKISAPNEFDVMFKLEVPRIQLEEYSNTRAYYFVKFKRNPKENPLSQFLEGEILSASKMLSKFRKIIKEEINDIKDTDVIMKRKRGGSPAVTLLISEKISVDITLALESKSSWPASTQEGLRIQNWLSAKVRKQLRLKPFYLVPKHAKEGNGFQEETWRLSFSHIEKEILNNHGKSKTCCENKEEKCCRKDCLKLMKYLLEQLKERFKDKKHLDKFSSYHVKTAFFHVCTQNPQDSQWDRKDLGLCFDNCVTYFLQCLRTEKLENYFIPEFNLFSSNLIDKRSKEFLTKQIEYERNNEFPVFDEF
# [3] = Cytotoxicity against mouse RAW-Lucia ISG cells assessed as reduction in cell viability incubated for 24 hrs by CCK-8 assay; format: toxicity, cell-based
# Cyclic GMP-AMP synthase [4] = molecular target: Cyclic GMP-AMP synthase (Mus musculus, UniProt Q8C6L5); test: Inhibition of mouse cGAS expressed in RAW-Lucia ISG transfected with HT-DNA assessed as suppression of lipofectamine 2000:ds-DNA complex induced activation of cGAS incubated for 1 hr by Quanti-luc reagent based assay; format: cell-based
# Chain of Cyclic GMP-AMP synthase (Mus musculus, UniProt Q8C6L5) (Q8C6L5 whole entry): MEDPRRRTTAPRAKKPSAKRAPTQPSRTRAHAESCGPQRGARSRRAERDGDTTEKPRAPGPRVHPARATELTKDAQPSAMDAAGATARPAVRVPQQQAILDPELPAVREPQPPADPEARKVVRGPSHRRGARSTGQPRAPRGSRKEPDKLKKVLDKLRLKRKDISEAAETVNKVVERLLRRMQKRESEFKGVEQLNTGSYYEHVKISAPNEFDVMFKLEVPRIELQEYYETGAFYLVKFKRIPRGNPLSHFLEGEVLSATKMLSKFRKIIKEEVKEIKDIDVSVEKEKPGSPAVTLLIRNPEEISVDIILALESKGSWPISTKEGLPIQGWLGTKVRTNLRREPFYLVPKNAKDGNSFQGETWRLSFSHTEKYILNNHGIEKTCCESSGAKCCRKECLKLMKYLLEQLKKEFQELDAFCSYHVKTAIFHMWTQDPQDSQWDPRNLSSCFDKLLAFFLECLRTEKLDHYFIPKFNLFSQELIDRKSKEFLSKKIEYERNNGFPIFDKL
# [5] = molecular target: Stimulator of interferon genes protein (Homo sapiens) (UniProt Q86WV6); test: Inhibition of STING-dependent cGAS activation in cGAMP treated human THP-1-Dual cells assessed as suppression of lipofectamine 2000:cGAMP-induced IRF luciferase expression at 10 uM incubated for 1 hr by Quanti-luc reagent based assay; format: cell-based
# Chain of Stimulator of interferon genes protein (Homo sapiens) (Q86WV6 whole entry): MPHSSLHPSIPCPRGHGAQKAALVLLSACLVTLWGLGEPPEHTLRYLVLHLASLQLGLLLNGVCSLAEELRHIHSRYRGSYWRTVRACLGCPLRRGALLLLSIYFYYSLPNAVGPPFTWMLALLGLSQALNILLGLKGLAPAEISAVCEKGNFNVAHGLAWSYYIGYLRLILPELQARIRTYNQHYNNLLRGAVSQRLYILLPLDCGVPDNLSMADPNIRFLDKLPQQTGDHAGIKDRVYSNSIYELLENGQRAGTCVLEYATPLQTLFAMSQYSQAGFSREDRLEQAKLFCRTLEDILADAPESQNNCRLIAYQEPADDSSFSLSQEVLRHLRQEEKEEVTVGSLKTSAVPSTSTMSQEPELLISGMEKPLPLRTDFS
# [6] = Cytotoxicity against human THP-1 cells assessed as cell growth inhibition; format: toxicity, cell-based
# Cyclic GMP-AMP synthase [7] = molecular target: T1, Cyclic GMP-AMP synthase
# [8] = Aqueous solubility of compound; format: physicochemical; conditions: aqueous (not further specified)
structure (smiles),measurement,setting,value
Cn1ccc(-c2cc(Cl)c(Cl)c3[nH]c4c(c23)CN(C(=O)OC(C(F)(F)F)C(F)(F)F)CC4)n1,CC50 at 24 h,[1],50 µM
same,IC50,Cyclic GMP-AMP synthase [2],19.2 µM
same,CC50 at 24 h,[3],43.3 µM
same,IC50,Cyclic GMP-AMP synthase [4],3.23 µM
Cn1ccc(-c2cc(Cl)c(Cl)c3[nH]c4c(c23)CN(C(=O)CN)CC4)n1,inhibition,[5],inactive
CNCC(=O)N1CCc2[nH]c3c(Cl)c(Cl)cc(-c4ccn(C)n4)c3c2C1,CC50 at 24 h,[1],42.1 µM
same,IC50,Cyclic GMP-AMP synthase [2],6.3 µM
same,CC50 at 24 h,[3],> 50 µM
same,IC50,Cyclic GMP-AMP synthase [4],21.9 µM
O=C(CO)N1CCC2=Nc3c(ccc(Cl)c3Cl)C2(c2c[nH]c3cc(F)cc(F)c23)C1 (stereo unspecified),CC50 at 24 h,[1],10.4 µM
same,IC50,Cyclic GMP-AMP synthase [2],12.9 µM
Cn1ccc(-c2cc(Cl)c(Cl)c3[nH]c4c(c23)CN(C(=O)C2CC(OC(F)F)C2)CC4)n1 (stereo unspecified),CC50 at 24 h,[1],20.2 µM
same,IC50,Cyclic GMP-AMP synthase [2],20.3 µM
CC(=O)OCC(=O)N1CCC2=Nc3c(ccc(Cl)c3Cl)C2(Nc2ccc(Cl)cc2C=O)C1 (stereo unspecified),CC50 at 24 h,[1],12.5 µM
same,IC50,Cyclic GMP-AMP synthase [2],1.14 µM
same,CC50 at 24 h,[3],47.8 µM
same,IC50,Cyclic GMP-AMP synthase [4],16.3 µM
same,inhibition,[5],Active
O=C(CO)N1CCc2[nH]c3c(Cl)c(Cl)cc(-c4cn[nH]c4)c3c2C1,IC50,[6],2.95 µM
same,IC50,Cyclic GMP-AMP synthase [7],0.027 µM
CC(=O)OCC(=O)N1CCC2=Nc3c(ccc(Cl)c3Cl)C2(Nc2ccc(C(F)(F)F)cc2C=O)C1 (stereo unspecified),CC50 at 24 h,[1],10.1 µM
same,IC50,Cyclic GMP-AMP synthase [2],2.72 µM
same,CC50 at 24 h,[3],> 50 µM
same,IC50,Cyclic GMP-AMP synthase [4],9.01 µM
same,inhibition,[5],Active
Cn1ccc(-c2cc(Cl)c(Cl)c3[nH]c4c(c23)CN(C(=O)CO)CC4)n1,CC50 at 24 h,[1],> 50 µM
same,IC50,Cyclic GMP-AMP synthase [2],2.69 µM
same,CC50 at 24 h,[3],> 50 µM
same,IC50,Cyclic GMP-AMP synthase [4],20 µM
same,solubility,[8],1 µg/mL
same,IC50,[6],1.7 µM
O=C(CO)N1CCC2Nc3c(ccc(Cl)c3Cl)C2(c2c[nH]c3ccccc23)C1 (stereo unspecified),CC50 at 24 h,[1],42.8 µM
same,IC50,Cyclic GMP-AMP synthase [2],4.07 µM
same,CC50 at 24 h,[3],34.9 µM
same,IC50,Cyclic GMP-AMP synthase [4],8.42 µM
same,inhibition,[5],inactive
Cn1ccc(-c2cc(Cl)c(Cl)c3[nH]c4c(c23)CN(C(=O)C2CC(O)C2)CC4)n1 (stereo unspecified),CC50 at 24 h,[1],> 50 µM
same,IC50,Cyclic GMP-AMP synthase [2],> 50 µM
Cn1ccc(-c2cc(Cl)c(Cl)c3[nH]c4c(c23)CN(C(=O)CNC(=O)[C@@H](N)O)CC4)n1,CC50 at 24 h,[1],27.7 µM
same,IC50,Cyclic GMP-AMP synthase [2],11 µM
COc1ccc(OC)c2c1NC13CN(C(=O)CO)CCC21Nc1c3ccc(Cl)c1Cl (stereo unspecified),CC50 at 24 h,[1],> 50 µM
same,IC50,Cyclic GMP-AMP synthase [2],> 50 µM
same,CC50 at 24 h,[3],> 50 µM
same,IC50,Cyclic GMP-AMP synthase [4],20.1 µM
Cc1ccc(OC(F)(F)C(=O)NCC(=O)N2CCc3[nH]c4c(Cl)c(Cl)cc(-c5ccn(C)n5)c4c3C2)cc1,CC50 at 24 h,[1],> 50 µM
same,IC50,Cyclic GMP-AMP synthase [2],15.5 µM
same,CC50 at 24 h,[3],> 50 µM
same,IC50,Cyclic GMP-AMP synthase [4],6.69 µM
Cn1ccc(-c2cc(Cl)c(Cl)c3[nH]c4c(c23)CN(C(=O)CNC(=O)c2cccc(-c3noc(C(F)(F)F)n3)c2)CC4)n1,CC50 at 24 h,[1],> 50 µM
same,IC50,Cyclic GMP-AMP synthase [2],10 µM
same,CC50 at 24 h,[3],> 50 µM
same,IC50,Cyclic GMP-AMP synthase [4],7.62 µM
O=C(CO)N1CCC2=Nc3c(ccc(Cl)c3Cl)C2(c2c[nH]c3cc(F)ccc23)C1 (stereo unspecified),CC50 at 24 h,[1],32.1 µM
same,IC50,Cyclic GMP-AMP synthase [2],14.1 µM
Cl.Cn1ccc(-c2cc(Cl)c(Cl)c3[nH]c4c(c23)CN(C(=O)CNC(=O)CN)CC4)n1,solubility,[8],27600 µg/mL
Cn1ccc(-c2cc(Cl)c(Cl)c3[nH]c4c(c23)CN(C(=O)CNC(=O)C2(N)CC2)CC4)n1,CC50 at 24 h,[1],> 50 µM
same,IC50,Cyclic GMP-AMP synthase [2],13.5 µM
COc1ccc2c(C34CN(C(=O)CO)CCC3=Nc3c4ccc(Cl)c3Cl)c[nH]c2c1 (stereo unspecified),CC50 at 24 h,[1],> 50 µM
same,IC50,Cyclic GMP-AMP synthase [2],11.3 µM
O=C(CO)N1C[C@H]2[C@H]3O[C@]4(Nc5ccc(Cl)cc53)c3ccc(Cl)c(Cl)c3N[C@]24C1 (racemic),CC50 at 24 h,[1],> 50 µM
same,IC50,Cyclic GMP-AMP synthase [2],38.2 µM
same,CC50 at 24 h,[3],> 50 µM
same,IC50,Cyclic GMP-AMP synthase [4],37.6 µM
CC(=O)OCC(=O)N1CCC2=Nc3c(ccc(Cl)c3Cl)C2(c2c[nH]c3ccccc23)C1 (stereo unspecified),CC50 at 24 h,[1],50 µM
same,IC50,Cyclic GMP-AMP synthase [2],6.3 µM
same,CC50 at 24 h,[3],> 50 µM
same,IC50,Cyclic GMP-AMP synthase [4],9.73 µM
Cn1ccc(-c2cc(Cl)c(Cl)c3[nH]c4c(c23)CN(C(=O)CNC(=O)C(C)(C)NC(=O)OC(C)(C)C)CC4)n1,CC50 at 24 h,[1],49.2 µM
same,IC50,Cyclic GMP-AMP synthase [2],8.21 µM
Cl.Cn1ccc(-c2cc(Cl)c(Cl)c3[nH]c4c(c23)CN(C(=O)CN)CC4)n1,solubility,[8],3780 µg/mL
COc1ccccc1NC12CN(C(=O)CO)CCC1=Nc1c2ccc(Cl)c1Cl (stereo unspecified),CC50 at 24 h,[1],> 50 µM
same,IC50,Cyclic GMP-AMP synthase [2],> 50 µM
same,CC50 at 24 h,[3],> 50 µM
same,IC50,Cyclic GMP-AMP synthase [4],22.8 µM
Cn1ccc(-c2cc(Cl)c(Cl)c3[nH]c4c(c23)CN(C(=O)CNC(=O)C(C)(C)N)CC4)n1,CC50 at 24 h,[1],12.3 µM
same,IC50,Cyclic GMP-AMP synthase [2],10.5 µM
